Results from PubChem BioAssay (NCI).
Where “and” joins values, the source holds several entries; their conditions need not be identical. Identical values can stand only once.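 Cultured in 96-well plates, cells were exposed to test compound for 48 hours across five concentrations. GI50 marks 50% less growth. TGI denotes the concentration required for complete inhibition of growth.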

Key:
Test in all cases: NCI tumour cell line growth inhibition, 48 h
MDA-MB-231 breast = tested on: MDA-MB-231 breast
MALME-3M melanoma = tested on: MALME-3M melanoma
UACC-62 melanoma = tested on: UACC-62 melanoma
OVCAR-4 ovarian = tested on: OVCAR-4 ovarian
OVCAR-8 ovarian = tested on: OVCAR-8 ovarian
UACC-257 melanoma = tested on: UACC-257 melanoma
BT-549 breast = tested on: BT-549 breast
SK-MEL-5 melanoma = tested on: SK-MEL-5 melanoma

| SMILES | GI50 (MDA-MB-231 breast) [µM] | TGI (MDA-MB-231 breast) [µM] | GI50 (MALME-3M melanoma) [µM] | TGI (MALME-3M melanoma) | GI50 (UACC-62 melanoma) [µM] | TGI (UACC-62 melanoma) | GI50 (OVCAR-4 ovarian) [µM] | TGI (OVCAR-4 ovarian) [µM] | GI50 (OVCAR-8 ovarian) [µM] | TGI (OVCAR-8 ovarian) [µM] | GI50 (UACC-257 melanoma) [µM] | TGI (UACC-257 melanoma) | GI50 (BT-549 breast) [µM] | TGI (BT-549 breast) [µM] | GI50 (SK-MEL-5 melanoma) [µM] | TGI (SK-MEL-5 melanoma) [µM] |
| --- | --- | --- | --- | --- | --- | --- | --- | --- | --- | --- | --- | --- | --- | --- | --- | --- |
| CCOC(=O)[C@@H](C)C[C@H](Cc1ccccc1)NC(=O)c1csc([C@@H](C[C@H](C(C)C)N(C)C(=O)[C@@H](NC(=O)[C@H]2CCCCN2C)C(C)(C)CC)OC(C)=O)n1 | 0.00283 | 1.18 | < 0.00167 | 3.68 µM | < 0.00167 | > 16.7 µM | 0.0146 | > 16.7 | 0.00231 | > 16.7 | 0.0442 | > 16.7 µM | < 0.00167 | 0.107 | < 0.00167 | 0.0294 |
| C#Cc1cccc(Nc2ncnc3cc(NC(=O)CCl)ccc23)c1 | 3.35 | 7.28 | 2.8 | 6.65 µM | 1.53 | 4.99 µM | 2.16 | 6.95 | 1.61 | 6.58 | 3.76 | 8.12 µM | 3.23 | 6.99 | 3.37 | 6.71 |
| CSC1=NC(=Nc2c(C)cccc2C)C2(CCC(C(C)(C)C)CC2)N1c1ccc(Cl)cc1 (stereo unspecified) | > 100 | > 100 | 42.6 | > 100 µM | 45.3 | > 100 µM | > 100 | > 100 | 15.1 | > 100 | – | – | 54.1 | > 100 | 9.32 | > 100 |
| Cc1ccccc1N=Nc1c(O)ccc2ccccc12 | – | > 100 | – | > 100 µM | – | > 100 µM | – | > 100 | – | > 100 | – | > 100 µM | – | > 100 | – | > 100 |
| CC(C)=CCc1cc2c(cc1O)C1=C(C(=O)C3=C(C1=O)S(=O)(=O)CCN3)C(C=C(C)C)O2 (stereo unspecified) | 0.374 | 1.61 | 0.122 | 0.397 µM | 0.419 | 1.21 µM | 0.469 | 2.44 | 0.552 | 2.12 | 0.482 | 1.5 µM | 2.31 | 4.78 | 0.284 | 0.66 |
| CN(C)c1ccc(/C=C\c2ccnc3ccccc23)cc1 | 11.3 | > 73.9 | 17.7 | > 89.2 µM | 6.18 | > 100 µM | 9.77 | > 100 | 5.26 | > 100 | 8.39 | 79.4 µM | 5.09 | 49.9 | 2.96 | 9.69 |
| Cc1cc(=O)oc2ccc(OC/C=C3\CCC(=O)O3)cc12 | 13.2 | 27 | 1.16 | 16.9 µM | 10.3 | 22.8 µM | 1.21 | 3.13 | 10 | 25 | 12.3 | 28.7 µM | 7.49 | 23.4 | 16.4 | 32.5 |
| Oc1ccc(Cl)cc1C(c1cc(Cl)ccc1O)C(Cl)(Cl)Cl | 1.71 | 3.86 | 1.5 | 3.91 µM | 1.59 | 3.82 µM | 2.71 | 10.7 | 2.89 | 9.59 | 2.68 | 10.3 µM | 1.82 | 4.71 | 1.58 | 3.05 |
| Nc1nnc2c(-c3ccccc3)[nH]nc2n1 | – | – | – | – | – | – | – | > 100 | – | > 100 | – | > 100 µM | – | – | – | – |
| C=C1C[C@H]2C=Nc3cc(OCCCOc4cc5c(cc4OC)C(=O)N4CC(=C)C[C@H]4C=N5)c(OC)cc3C(=O)N2C1 | 0.0185 | 0.0452 | 0.0122 | 0.0292 µM and < 0.0144 µM | 0.000264 | 0.000834 µM and < 0.0123 µM | < 0.012 | 0.0191 | – | > 18.4 | 0.0213 | 0.0421 µM and 0.0917 µM | 0.0126 | – | – | – |
| COc1ccc2c(c1)OC(N)=C(C#N)C2c1cc(OC)c(OC)c(OC)c1 (stereo unspecified) | – | – | 80.5 | > 100 µM | 0.0343 | > 100 µM | 0.0714 | > 100 | 0.0355 | > 70.2 | 0.0457 | > 100 µM | 0.0268 | 0.0836 | 0.0317 | – |
| C/C(=N\O)c1ccc2ccc3ccccc3c2c1 | – | > 100 | – | 50.5 µM | – | 45.2 µM | – | 66.5 | – | 61.4 | – | 53.4 µM | – | – | – | 37 |
| Cc1ccc(CNc2ccc(Br)cc2)cc1 | – | > 100 | – | 64 µM | – | > 100 µM | – | – | – | 65.3 | – | > 100 µM | – | – | – | 30.8 |
| CC(C)(C)c1cc(C(=O)Nc2ccccc2C(=O)NCCN)cc(C(C)(C)C)c1 | – | – | 1.93 | 3.64 µM | 1.83 | 3.44 µM | 1.89 | 3.82 | 2.08 | 4.2 | 1.9 | 3.93 µM | 2.33 | 5.84 | 1.82 | 3.27 |
| CCOC(=O)c1c(-c2ccccc2)[n+](=O)c2cc(Cl)c(Cl)cc2n1[O-] | 2.09 | 5.55 | – | – | 5.11 | 22.6 µM | 2.48 | 6.62 | 2.8 | 8.01 | 2.61 | 8.41 µM | 17.3 | 33.5 | 14.8 | 28.8 |
| COc1cc([N+](=O)[O-])c(OC)cc1-c1nc2sc(C)c(C)n2c1/C(N)=N/C(=N)N | – | – | – | – | – | – | – | – | – | – | 1.02 | > 100 µM | > 100 | > 100 | 8.14 | > 100 |
| CC(=O)Nc1ccc(C(=O)CCl)cc1 | 4.02 | 14.8 | – | – | 8.3 | 21.6 µM | 2.07 | 4.06 | 7.56 | 24.2 | 10.9 | 23.3 µM | 4.94 | 17.1 | 15.9 | 31 |
| COc1cccc(/C=C/C(=O)c2ccc3cc(OC)ccc3c2)c1 | 8.95 | 22.9 | – | – | 8.35 | 21.9 µM | 24.7 | > 50 | 10.6 | 33.3 | > 50 | > 50 µM | 8.07 | 17.7 | 9.21 | 18.2 |
